From ChEMBL document CHEMBL1152211, “Structure-activity study at positions 3 and 4 of human neuropeptide S” (Bioorg Med Chem, 2008)
Non-standard residues stand in square brackets, D forms with d. Residues, ends and D or L forms follow the SMILES beside them. Nva(4-oxo) = CC(=O)C[C@H](N)C(=O)O; 2Pal = N[C@@H](Cc1ccccn1)C(=O)O; 3Pal = N[C@@H](Cc1cccnc1)C(=O)O; 4Pal = N[C@@H](Cc1ccncc1)C(=O)O; Dab = NCC[C@H](N)C(=O)O; Nva = CCC[C@H](N)C(=O)O

Target: T1, Neuropeptide S receptor (Mus musculus) (UniProt Q8BZP8)
T1 sequence (whole entry): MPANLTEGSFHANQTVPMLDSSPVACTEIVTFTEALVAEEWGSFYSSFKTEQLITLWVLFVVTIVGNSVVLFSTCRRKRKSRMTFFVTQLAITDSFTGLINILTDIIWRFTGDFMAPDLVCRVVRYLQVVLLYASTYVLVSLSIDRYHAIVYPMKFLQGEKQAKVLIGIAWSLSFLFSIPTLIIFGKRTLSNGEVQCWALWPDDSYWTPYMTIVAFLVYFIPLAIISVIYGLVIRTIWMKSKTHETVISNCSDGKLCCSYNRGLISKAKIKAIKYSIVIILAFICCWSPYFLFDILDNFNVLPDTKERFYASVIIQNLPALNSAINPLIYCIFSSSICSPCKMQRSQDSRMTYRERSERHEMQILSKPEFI
Assay: Agonist activity at mouse NPSR expressed in HEK293 cells assessed as increase in intracellular calcium mobilization at 10 uM by FLIPR
Format: functional, cell-based

Row | Activity | Compound
1 | 136% | CSCC[C@H](NC(=O)CNC(=O)[C@@H](NC(=O)CNC(=O)[C@@H](NC(=O)CNC(=O)[C@H](CC(C)=O)NC(=O)[C@H](CCCNC(=N)N)NC(=O)[C@H](Cc1ccccc1)NC(=O)[C@@H](N)CO)C(C)C)[C@@H](C)O)C(=O)N[C@@H](CCCCN)C(=O)N[C@@H](CCCCN)C(=O)N[C@H](C(=O)N[C@@H](CO)C(=O)N[C@@H](Cc1ccccc1)C(=O)N[C@@H](CCC(N)=O)C(=O)N[C@@H](CCCNC(=N)N)C(=O)N[C@@H](C)C(=O)N[C@@H](CCCCN)C(=O)N[C@@H](CO)C(=O)O)[C@@H](C)O (H-SFR[Nva(4-oxo)]GVGTGMKKTSFQRAKS-OH)
2 | 169% | CSCC[C@H](NC(=O)CNC(=O)[C@@H](NC(=O)CNC(=O)[C@@H](NC(=O)CNC(=O)[C@H](CCN)NC(=O)[C@H](CCCNC(=N)N)NC(=O)[C@H](Cc1ccccc1)NC(=O)[C@@H](N)CO)C(C)C)[C@@H](C)O)C(=O)N[C@@H](CCCCN)C(=O)N[C@@H](CCCCN)C(=O)N[C@H](C(=O)N[C@@H](CO)C(=O)N[C@@H](Cc1ccccc1)C(=O)N[C@@H](CCC(N)=O)C(=O)N[C@@H](CCCNC(=N)N)C(=O)N[C@@H](C)C(=O)N[C@@H](CCCCN)C(=O)N[C@@H](CO)C(=O)O)[C@@H](C)O (H-SFR[Dab]GVGTGMKKTSFQRAKS-OH)
3 | 240% | CCC[C@H](NC(=O)[C@H](CCCNC(=N)N)NC(=O)[C@H](Cc1ccccc1)NC(=O)[C@@H](N)CO)C(=O)NCC(=O)N[C@H](C(=O)NCC(=O)N[C@H](C(=O)NCC(=O)N[C@@H](CCSC)C(=O)N[C@@H](CCCCN)C(=O)N[C@@H](CCCCN)C(=O)N[C@H](C(=O)N[C@@H](CO)C(=O)N[C@@H](Cc1ccccc1)C(=O)N[C@@H](CCC(N)=O)C(=O)N[C@@H](CCCNC(=N)N)C(=O)N[C@@H](C)C(=O)N[C@@H](CCCCN)C(=O)N[C@@H](CO)C(=O)O)[C@@H](C)O)[C@@H](C)O)C(C)C (H-SFR[Nva]GVGTGMKKTSFQRAKS-OH)
4 | 118% | H-SFRFGVGTGMKKTSFQRAKS-OH
5 | 146% | H-SFRDGVGTGMKKTSFQRAKS-OH
6 | 89% | H-SFENGVGTGMKKTSFQRAKS-OH
7 | 89% | CSCC[C@H](NC(=O)CNC(=O)[C@@H](NC(=O)CNC(=O)[C@@H](NC(=O)CNC(=O)[C@H](CC(=O)N(C)C)NC(=O)[C@H](CCCNC(=N)N)NC(=O)[C@H](Cc1ccccc1)NC(=O)[C@@H](N)CO)C(C)C)[C@@H](C)O)C(=O)N[C@@H](CCCCN)C(=O)N[C@@H](CCCCN)C(=O)N[C@H](C(=O)N[C@@H](CO)C(=O)N[C@@H](Cc1ccccc1)C(=O)N[C@@H](CCC(N)=O)C(=O)N[C@@H](CCCNC(=N)N)C(=O)N[C@@H](C)C(=O)N[C@@H](CCCCN)C(=O)N[C@@H](CO)C(=O)O)[C@@H](C)O (H-SFRD(NMe2)GVGTGMKKTSFQRAKS-OH)

Further lines, the compound ahead of its results:

Row | Compound | Activity
8 | CSCC[C@H](NC(=O)CNC(=O)[C@@H](NC(=O)CNC(=O)[C@@H](NC(=O)CNC(=O)[C@H](CC(N)=O)NC(=O)[C@H](Cc1cccnc1)NC(=O)[C@H](Cc1ccccc1)NC(=O)[C@@H](N)CO)C(C)C)[C@@H](C)O)C(=O)N[C@@H](CCCCN)C(=O)N[C@@H](CCCCN)C(=O)N[C@H](C(=O)N[C@@H](CO)C(=O)N[C@@H](Cc1ccccc1)C(=O)N[C@@H](CCC(N)=O)C(=O)N[C@@H](CCCNC(=N)N)C(=O)N[C@@H](C)C(=O)N[C@@H](CCCCN)C(=O)N[C@@H](CO)C(=O)O)[C@@H](C)O (H-SF[3Pal]NGVGTGMKKTSFQRAKS-OH) | 42%
9 | H-SFSNGVGTGMKKTSFQRAKS-OH | 175%
10 | H-SFYNGVGTGMKKTSFQRAKS-OH | 73%
11 | H-SFFNGVGTGMKKTSFQRAKS-OH | 46%
12 | CSCC[C@H](NC(=O)CNC(=O)[C@@H](NC(=O)CNC(=O)[C@@H](NC(=O)CNC(=O)[C@H](CC(N)=O)NC(=O)[C@H](Cc1ccncc1)NC(=O)[C@H](Cc1ccccc1)NC(=O)[C@@H](N)CO)C(C)C)[C@@H](C)O)C(=O)N[C@@H](CCCCN)C(=O)N[C@@H](CCCCN)C(=O)N[C@H](C(=O)N[C@@H](CO)C(=O)N[C@@H](Cc1ccccc1)C(=O)N[C@@H](CCC(N)=O)C(=O)N[C@@H](CCCNC(=N)N)C(=O)N[C@@H](C)C(=O)N[C@@H](CCCCN)C(=O)N[C@@H](CO)C(=O)O)[C@@H](C)O (H-SF[4Pal]NGVGTGMKKTSFQRAKS-OH) | 154%
13 | CSCC[C@H](NC(=O)CNC(=O)[C@@H](NC(=O)CNC(=O)[C@@H](NC(=O)CNC(=O)[C@H](CC(N)=O)NC(=O)[C@H](Cc1ccccn1)NC(=O)[C@H](Cc1ccccc1)NC(=O)[C@@H](N)CO)C(C)C)[C@@H](C)O)C(=O)N[C@@H](CCCCN)C(=O)N[C@@H](CCCCN)C(=O)N[C@H](C(=O)N[C@@H](CO)C(=O)N[C@@H](Cc1ccccc1)C(=O)N[C@@H](CCC(N)=O)C(=O)N[C@@H](CCCNC(=N)N)C(=O)N[C@@H](C)C(=O)N[C@@H](CCCCN)C(=O)N[C@@H](CO)C(=O)O)[C@@H](C)O (H-SF[2Pal]NGVGTGMKKTSFQRAKS-OH) | 19%
